Values of other authors as cited in patent US11331275B2 (Humanwell PuraCap Pharmaceuticals (Wuhan) Co., Ltd, priority 2017, dated 2022).

- solubility in acetonitrile (acetonitrile): soluble
- solubility in dimethylsulfoxide (dimethylsulfoxide): soluble
- solubility in methanol (methanol): slightly soluble
- solubility in water (water): almost insoluble
Structure (SMILES): C=C(c1ccc(C(=O)O)cc1)c1cc2c(cc1C)C(C)(C)CCC2(C)C [bexarotene, 4-[1-(5,6,7,8-tetrahydro-3,5,5,8,8-pentamethyl-2-naphthyl)ethenyl] benzoic acid]
